In the NIST ThermoML archive (doi:10.1016/j.jct.2016.02.009):

Assay: molar heat capacity at constant pressure
Settings: 101.33 kPa, Small (less than 1 g) adiabatic calorimetry

CCCCCCCCCCn1cc[n+](C)c1.O=S(=O)([N-]S(=O)(=O)C(F)(F)F)C(F)(F)F
molar heat capacity at constant pressure [J/K/mol]
Settings	Crystal 2	Metastable crystal
4.82 K	3.08	–
4.98 K	–	3.38
5 K	3.41	3.41
5.15 K	3.69	–
5.32 K	–	4.05
5.49 K	4.38	–
5.67 K	–	4.81
5.85 K	5.15	–
6.03 K	–	5.65
6.28 K	6.16	–
6.46 K	–	6.76
6.8 K	7.44	–
6.97 K	–	8.15
7.32 K	8.83	–
7.49 K	–	9.71
7.85 K	10.34	–
8.02 K	–	11.34
8.39 K	11.95	–
8.55 K	–	13.1
8.92 K	13.66	–
9.09 K	–	14.97
9.47 K	15.45	–
9.62 K	–	16.9
10 K	17.29	18.31
10.01 K	17.32	–
10.16 K	–	18.93
10.63 K	19.54	–
10.78 K	–	21.32
11.31 K	22.05	–
11.46 K	–	24.01
12 K	24.68	–
12.15 K	–	26.84
12.7 K	27.41	–
12.85 K	–	29.77
13.4 K	30.22	–
13.56 K	–	32.75
14.1 K	33.14	–
14.27 K	–	35.9
14.81 K	36.15	–
14.99 K	–	39.03
15 K	36.94	39.12
15.63 K	39.64	–
15.81 K	–	42.67
16.56 K	43.69	–
16.75 K	–	46.88
17.51 K	47.81	–
17.7 K	–	51.06
18.46 K	51.81	–
18.65 K	–	55.14
19.4 K	55.79	–
19.6 K	–	59.21
20 K	58.37	61
20.36 K	59.87	–
20.85 K	–	64.6
21.61 K	65.16	–
22.41 K	–	71.3
23.17 K	71.8	–
23.98 K	–	78
24.75 K	78.35	–
25 K	79.32	82.14
25.56 K	–	84.49
26.31 K	84.64	–
27.07 K	–	90.53
27.89 K	90.84	–
28.66 K	–	96.83
29.55 K	97.23	–
30 K	98.9	102
30.24 K	–	102.9
31.4 K	104	–
31.98 K	–	109.5
33.31 K	110.8	–
33.9 K	–	116.3
35 K	116.6	120.1
35.22 K	117.3	–
35.82 K	–	123
37.13 K	123.7	–
37.74 K	–	129.4
39.05 K	129.9	–
39.66 K	–	135.6
40 K	132.9	136.7
41.06 K	136.2	–
41.68 K	–	142
43.16 K	142.8	–
43.79 K	–	148.7
45 K	–	152.5
45.27 K	149.2	–
45.9 K	–	155.3
47.38 K	155.7	–
48.02 K	–	161.8
49.5 K	161.9	–
50 K	163.2	167.6
50.15 K	–	168
51.63 K	168	–
52.27 K	–	174.1
53.75 K	173.9	–
54.4 K	–	180
55.87 K	179.6	–
56.52 K	–	185.7
57.99 K	185.1	–
58.65 K	–	191.3
60 K	190.4	194.8
60.11 K	190.6	–
60.78 K	–	196.8
62.24 K	196.1	–
62.91 K	–	202.2
64.38 K	201.3	–
65.05 K	–	207.5
66.52 K	206.5	–
67.19 K	–	212.7
68.65 K	211.6	–
69.32 K	–	217.8
70 K	214.9	219.4
70.79 K	216.6	–
71.56 K	–	223.1
73.03 K	221.9	–
73.9 K	–	228.4
75.37 K	227.2	–
76.24 K	–	233.8
77.73 K	232.5	–
78.59 K	–	239
80 K	237.4	242.1
80.09 K	237.6	–
80.53 K	238.8	–
80.94 K	–	244.2
81.02 K	–	244.3
82.24 K	242.3	–
82.44 K	242.6	–
82.84 K	–	248.2
83.3 K	–	249.2
83.96 K	245.9	–
84.55 K	–	251.8
85.68 K	249.4	–
86.26 K	–	255.5
87.42 K	253.1	–
87.99 K	–	259.2
89.16 K	256.6	–
89.72 K	–	262.8
90 K	258.5	263.4
90.91 K	260.3	–
91.45 K	–	266.4
92.66 K	263.9	–
93.2 K	–	270
94.42 K	267.5	–
94.95 K	–	273.7
96.19 K	271.1	–
96.7 K	–	277.2
97.97 K	274.7	–
98.47 K	–	280.8
99.75 K	278.1	–
100 K	278.7	283.9
100.23 K	–	284.3
101.59 K	281.8	–
102.07 K	–	288.2
103.5 K	285.5	–
103.96 K	–	292
105.42 K	289.1	–
105.87 K	–	295.9
107.35 K	292.7	–
107.77 K	–	299.7
109.27 K	296.4	–
109.69 K	–	303.6
110 K	297.7	304.1
111.21 K	299.9	–
111.6 K	–	307.4
113.14 K	303.5	–
113.52 K	–	311.1
115.09 K	307	–
115.45 K	–	314.9
117.03 K	310.5	–
117.37 K	–	318.6
118.98 K	314	–
119.3 K	–	322.3
120 K	315.8	323.7
120.92 K	317.4	–
121.23 K	–	326.1
122.88 K	320.8	–
123.16 K	–	329.9
124.83 K	324.3	–
125.09 K	–	333.6
126.79 K	327.7	–
127.03 K	–	337.4
128.75 K	331.1	–
128.97 K	–	341.2
130 K	333.3	343.2
130.71 K	334.5	–
130.9 K	–	345.1
132.67 K	337.9	–
132.84 K	–	348.9
134.64 K	341.3	–
134.78 K	–	352.7
136.6 K	344.8	–
136.72 K	–	356.6
138.57 K	348	–
138.66 K	–	360.6
140 K	350.5	363.3
140.54 K	351.4	–
140.6 K	–	364.4
142.51 K	354.8	–
